From patent US20250114368A1, “COMPOSITIONS AND METHODS RELATING TO PEDIATRIC NEUROMUSCULAR DISEASES AND NEUROGENERATIVE DISORDERS” (Ann and Robert H. Lurie Children's Hospital of Chicago, priority 2023, published 2025)
Entries after “also recorded” stand apart in the source; their conditions may differ.

Experiments:
SMA motor neurons = experiment: TUNEL staining of degenerating primary spinal motor neurons cultured from Δ7 SMA mice; format: cell-based, mouse; conditions: 300 nM applied at 3 DIV, assayed on 6 DIV
Source text: FIGS. 4A-4D: Mitigating aberrant Cdk5 activation ameliorates the degeneration of motor neurons from SMA mice. (A-B) Primary spinal motor neurons from SMA mice cultured 6 days in vitro (6 DIV) were stained by antibodies recognizing motor neuron marker Isl1 (magenta in A, B) and pan-neuronal marker TuJ1 (green in A). DAPI nuclear staining marks all cells in the culture. (C) Western blot analysis of Cdk5 knockdown in motor neurons treated with shRNA. […] Motor neurons were infected with lentivirus on 4 DIV and cultured for another 3 days before Western blot analysis. Two examples of Cdk5 shRNA knockdown were shown, with the expression of GAPDH as loading control. (D) Quantification of TUNEL+ degenerating motor neurons from WT and SMA mice. […]
Human SMA iPSC and Mouse Motor Neuron Culture. […] Cell death was detected by the in situ cell death detection TMR red TUNEL (Terminal Transferase dUTP Nick End Labeling) kit. […]
Mitigating Aberrant Cdk5 Activation Reduces the Degeneration of SMA Mouse Motor Neurons. Experiments were conducted during development of embodiments herein to determine whether reducing aberrant Cdk5 activation in SMA conditions serve to ameliorate motor neuron degeneration; the degeneration of motor neurons cultured from Δ7 SMA mice and control mice by TUNEL staining was monitored. […]

[1] = system: human SMA iPSC-derived motor neurons; experiment: Degeneration of human SMA iPSC-derived motor neurons (TuJ1 and Isl1-positive motor neurons as percentage of DAPI positive cells); format: cell-based; conditions: week 3 to week 6 in culture
Source text: FIGS. 8A-8M: Inhibition of Cdk5 signaling pathway decreases the degeneration of human SMA iPSC-derived motor neurons. (A-L) Immunostaining of human iPSC-derived motor neurons with antibodies recognizing neuronal marker TuJ1 (green in A-L), motor neuron marker Isl1 (red in A-L), and nucleus marker DAPI (blue in A-L). […] (M) Quantification of TuJ1 and Isl1-positive motor neurons as a percentage of all DAPI positive cells in a human iPSC model of SMA treated with inhibitors of Cdk5 signaling. […] Data are from four independent experiments and are mean±SEM. ** P<0.01, *** p<0.001, **** P<0.0001, Student's t test.
(§1) Human SMA iPSC and Mouse Motor Neuron Culture. Human iPSCs were generated and differentiated as described in the Examples. Briefly, primary fibroblasts were isolated from de-identified type I SMA patients and their unaffected relatives, infected with lentiviral constructs expressing OCT4, SOX2, NANOG, and LIN28 or episomally expressed reprogramming plasmids to generate iPSCs. Retinoic acid, sonic hedgehog, cAMP, ascorbic acid, brain-derived neurotrophic factor (BDNF) and glial cell line-derived neurotrophic factor (GDNF) were used to induce iPSC spheres to differentiate into motor neurons. […] Cell death was detected by the in situ cell death detection TMR red TUNEL (Terminal Transferase dUTP Nick End Labeling) kit. […]

SMA motor neuron = experiment: Dosage effect of BML259 on primary mouse motor neurons: toxic effect (cell morphology and viability, bright field microscope); format: cell-based; conditions: two days
Source text: (§2) Human SMA iPSC and Mouse Motor Neuron Culture. Human iPSCs were generated and differentiated as described in the Examples. Briefly, primary fibroblasts were isolated from de-identified type I SMA patients and their unaffected relatives, infected with lentiviral constructs expressing OCT4, SOX2, NANOG, and LIN28 or episomally expressed reprogramming plasmids to generate iPSCs. Retinoic acid, sonic hedgehog, cAMP, ascorbic acid, brain-derived neurotrophic factor (BDNF) and glial cell line-derived neurotrophic factor (GDNF) were used to induce iPSC spheres to differentiate into motor neurons. Primary neurons from mouse spinal cords were cultured in Neurobasal (Life Technologies) supplemented with B27 (Life Technologies) as described. Briefly, spinal cords from E12.5 mouse embryos were dissected out and dissociated with 0.25% trypsin. After enriching motor neurons with Optiprep density gradient centrifugation and BSA cushion, cells were seeded on glass cover slips coated with 20 μg/ml Poly-L-Lysine (PLL) (Sigma) and 8 μg/ml Laminin (Sigma), and grown in the presence of […] (PeproTech). Cell death was detected by the in situ cell death detection TMR red TUNEL (Terminal Transferase dUTP Nick End Labeling) kit. Cdk5 inhibitor BML259 (300 nM) (Cayman Chemical) and calpain inhibitor Calpeptin (10 μM) (Tocris Bioscience) were applied from week 3 to 6 into iPSC motor neuron medium to inhibit Cdk5 signaling.
(§3) Different concentrations of Cdk5 inhibitor BML259 were applied on primary motor neurons from wild type and SMA mice. After two days, treated and untreated cells were compared to identify potential toxic effects of causing additional cell death by checking cell morphology and viability using a bright field microscope.

WT motor neuron = experiment: as above; format: cell-based; conditions: two days
Source text: as §2, §3

SMA iPSC motor neurons [2] = experiment: iPSC motor neuron degeneration measured by TUNEL; format: cell-based, human; conditions: 300 nM
Method: (§4) Calpeptin (10 μM) (A) was used to inhibit calpain activity, and 300 nM BML259 (B) was used to inhibit Cdk5 activity in control and SMA iPSC motor neurons. Data are from four independent experiments and are mean±SEM. ** p<0.01, *** p<0.001, Student's t test. […] Levels of different mRNA in each sample are calculated as relative to gapdh mRNA. The level of gapdh mRNA is presented as relative to the average of four samples. The measurement of each sample was repeated three times and four sets of mice were used. Results are mean±SEM. ** p<0.01, Student's t test.
as §1

[3] = system: SMA non-integrating iPSC-derived motor neurons; experiment: Motor neuron degeneration in non-integrating iPSC SMA model (Isl1+ and TuJ1+ motor neurons as percentage of DAPI-positive cells); format: cell-based, human; conditions: 10 μM
Source text: FIGS. 9A-C: (A) The increase of Cdk5 kinase activity in E18.5 SMA mouse spinal cord is not significant. Endogenous Cdk5 was immunoprecipitated from spinal cord lysates of E18.5 WT and SMA mice and measured kinase activity of phosphorylating Histone H1 with ^32P-γ-ATP. The same levels of Cdk5 and purified Histone H1 used in kinase assay reactions were monitored by Western blotting. Data are mean±SEM, Student's t test (n=12, P=0.0875). […] Endogenous Cdk5 was immunoprecipitated from motor neurons differentiated from WT and SMA non-integrating iPSCs. Kinase activities were quantified by the phosphorylation of Histone H1 with ^32P-γ-ATP. The same levels of Cdk5 and Histone H1 were monitored by Western blot. Data are mean±SEM, Student's t test (n=12, P<0.0001). […] Calpain inhibitor Calpeptin (10 μM) was applied to WT and SMA non-integrating iPSC-derived motor neurons. The number of Isl1+ and TuJ1+motor neurons as a percentage of all DAPI-positive cells was quantified from 1490 motor neurons in four independent experiments and are mean±SEM. ** p=0.0045, Student's t test.
Human SMA iPSC and Mouse Motor Neuron Culture. Human iPSCs were generated and differentiated as described in the Examples. […] Cell death was detected by the in situ cell death detection TMR red TUNEL (Terminal Transferase dUTP Nick End Labeling) kit. […]

SMA iPSC motor neurons [4] = experiment: iPSC motor neuron degeneration measured by choline acetyltransferase (ChAT) staining; format: cell-based, human; conditions: 10 μM
Method: as §4, §1

iPSC motor neuron degeneration by ChAT staining (SMA iPSC motor neurons [4])	Structure (SMILES)	TUNEL+ degenerating motor neurons from SMA mice (SMA motor neurons)	Degeneration of motor neurons (TuJ1 and Isl1-positive, % of DAPI positive cells) in human SMA iPSC culture ([1]; 300 nM)	Toxic Effect on SMA motor neuron (SMA motor neuron; 50 nM)	Toxic Effect on SMA motor neuron (SMA motor neuron; 150 nM)	Toxic Effect on SMA motor neuron (SMA motor neuron; 300 nM)	Toxic Effect on SMA motor neuron (SMA motor neuron; 450 nM)	Toxic Effect on SMA motor neuron (SMA motor neuron; 600 nM)	Toxic Effect on WT motor neuron (WT motor neuron; 50 nM)	Toxic Effect on WT motor neuron (WT motor neuron; 150 nM)	Toxic Effect on WT motor neuron (WT motor neuron; 300 nM)	Toxic Effect on WT motor neuron (WT motor neuron; 450 nM)	Toxic Effect on WT motor neuron (WT motor neuron; 600 nM)	iPSC motor neuron degeneration by TUNEL (SMA iPSC motor neurons [2])	Motor neuron degeneration in non-integrating iPSC SMA model [3]	Degeneration of motor neurons (TuJ1 and Isl1-positive, % of DAPI positive cells) in human SMA iPSC culture ([1]; 10 μM)
	CC(C)c1cnc(NC(=O)Cc2ccccc2)s1 [BML259, N-(5-isopropyl-thiazol-2-yl)phenylacetamide]	significantly reduced the degeneration of SMA motor neurons	alleviated the degeneration of Isl1-positive motor neurons; also recorded: significantly reduces the degeneration of motor neurons	no	no	no	strong	very strong	no	no	no	weak	strong	reduces iPSC motor neuron degeneration		
reduces iPSC motor neuron degeneration	CCCC[C@@H](C=O)NC(=O)[C@H](CC(C)C)NC(=O)OCc1ccccc1 [Calpeptin]														significantly reduces motor neuron degeneration	alleviated the degeneration of Isl1-positive motor neurons; also recorded: significantly reduces the degeneration of motor neurons
